In ChEMBL document CHEMBL5154925, “Design and Optimization of Thienopyrimidine Derivatives as Potent and Selective PI3Kδ Inhibitors for the Treatment of B-Cell Malignancies” (J Med Chem, 2022):
Activity calls are given as the source filed them. The calls are words filed in the database; no cut-off is given here.

What was measured:
[1] = target: Phosphatidylinositol 4,5-bisphosphate 3-kinase catalytic subunit alpha isoform (Mus musculus, UniProt P42337); assay: Inhibition of PI3Kalpha in IGF-1 stimulated mouse C2C12 cells incubated for 10 mins by AlphaLISA assay; type: cell-based
[2] = target: T1, Phosphatidylinositol 4,5-bisphosphate 3-kinase catalytic subunit delta isoform (Homo sapiens, UniProt O00329); assay: Inhibition of PI3Kdelta (unknown origin) using PIP2 as substrate measured after 1 hr in presence of ATP by ADP-glo luminescence assay
T1 sequence (O00329 whole entry): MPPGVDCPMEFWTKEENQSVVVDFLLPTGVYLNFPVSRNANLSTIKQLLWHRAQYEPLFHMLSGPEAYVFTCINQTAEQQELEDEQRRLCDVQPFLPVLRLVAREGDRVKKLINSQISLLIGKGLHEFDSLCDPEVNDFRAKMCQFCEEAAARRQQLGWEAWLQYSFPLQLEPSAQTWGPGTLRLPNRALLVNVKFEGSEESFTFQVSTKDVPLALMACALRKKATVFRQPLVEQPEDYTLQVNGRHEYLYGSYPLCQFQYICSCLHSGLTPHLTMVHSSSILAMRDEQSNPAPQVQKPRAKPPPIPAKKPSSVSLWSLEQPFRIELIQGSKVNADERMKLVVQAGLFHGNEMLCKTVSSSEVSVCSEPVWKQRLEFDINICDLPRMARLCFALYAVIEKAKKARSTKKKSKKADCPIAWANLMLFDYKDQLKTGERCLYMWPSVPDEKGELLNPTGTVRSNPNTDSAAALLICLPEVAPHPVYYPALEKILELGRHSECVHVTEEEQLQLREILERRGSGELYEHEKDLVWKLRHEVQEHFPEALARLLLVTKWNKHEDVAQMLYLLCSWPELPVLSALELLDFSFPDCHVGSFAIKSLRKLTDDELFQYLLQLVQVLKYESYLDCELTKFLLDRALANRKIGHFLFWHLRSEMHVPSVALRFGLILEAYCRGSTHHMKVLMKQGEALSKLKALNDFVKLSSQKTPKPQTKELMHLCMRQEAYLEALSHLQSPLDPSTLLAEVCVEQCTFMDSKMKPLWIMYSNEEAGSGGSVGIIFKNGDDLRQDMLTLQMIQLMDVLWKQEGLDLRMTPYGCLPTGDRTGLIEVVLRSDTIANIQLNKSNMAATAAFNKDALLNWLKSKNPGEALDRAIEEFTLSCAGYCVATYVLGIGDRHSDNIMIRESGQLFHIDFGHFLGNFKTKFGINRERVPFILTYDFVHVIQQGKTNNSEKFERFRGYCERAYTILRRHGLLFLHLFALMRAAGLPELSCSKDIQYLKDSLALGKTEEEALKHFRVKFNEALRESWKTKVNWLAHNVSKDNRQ

[3] = Cmax in ICR mouse at 30 mg/kg, po measured upto 24 hrs by LC-MS/MS analysis; type: ADME, organism-based; design: time < 24 hrs, dose 30 mg/kg, route po; settings: in vivo
Pfeiffer [4] = assay: Antiproliferative activity against human Pfeiffer cells assessed as cell growth inhibition incubated for 96 hrs by cell titer glo assay; type: functional, cell-based
Pfeiffer [5] = assay: Induction of apoptosis in human Pfeiffer cells assessed as early apoptotic cells at 10 uM incubated for 48 hrs by annexin V-FITC staining based flow cytometry (reference value: 4.16 %); type: functional
[6] = target: T2, Phosphatidylinositol 4,5-bisphosphate 3-kinase catalytic subunit beta isoform (Homo sapiens, UniProt P42338); assay: Inhibition of PI3Kbeta (unknown origin) using PIP2 as substrate measured after 1 hr in presence of ATP by ADP-glo luminescence assay
SU-DHL-6 [7] = assay: Induction of cell cycle arrest in human SU-DHL-6 cells assessed as accumulation at G0/G1 phase at 2 to 50 uM after 24 hrs by propidium iodide and RNAase staining based flow cytometric analysis; type: functional; settings: dose 2-50 µM
[8] = target: T2, Phosphatidylinositol 4,5-bisphosphate 3-kinase catalytic subunit beta isoform; assay: Inhibition of PI3Kbeta in LPA stimulated human PC-3 cells incubated for 10 mins by AlphaLISA assay; type: cell-based
[9] = target: Phosphatidylinositol 4,5-bisphosphate 3-kinase catalytic subunit alpha isoform (Homo sapiens, UniProt P42336); assay: Inhibition of PI3Kalpha (unknown origin) using PIP2 as substrate measured after 1 hr in presence of ATP by ADP-glo luminescence assay
SU-DHL-6 [10] = assay: Induction of apoptosis in human SU-DHL-6 cells assessed as apoptotic rate incubated for 48 hrs by annexin V-FITC staining based flow cytometry; type: functional, cell-based; settings: dose 2-50 µM, DDE = dose-dependent effect
Rec1 = assay: Antiproliferative activity against human REC1 cells assessed as cell growth inhibition incubated for 96 hrs by cell titer glo assay; type: functional, cell-based; settings: Rec1, 96 h
SU-DHL-6 [11] = assay: Inhibition of P13K signaling pathway in human SU-DHL-6 cells assessed as reduction in AKT phosphorylation at S473 residue incubated for 4 hrs by Western blot analysis; type: cell-based; settings: dose 2-50 µM, DDE = dose-dependent effect
Pfeiffer [12] = assay: Induction of apoptosis in human Pfeiffer cells assessed as late apoptotic cells at 2 uM incubated for 48 hrs by annexin V-FITC staining based flow cytometry (reference value: 7.87 %); type: functional
Pfeiffer [13] = assay: Inhibition of P13K signaling pathway in human Pfeiffer cells assessed as reduction in AKT phosphorylation at S473 residue incubated for 4 hrs by Western blot analysis; type: cell-based; settings: dose 2-50 µM, DDE = dose-dependent effect
[14] = Microsomal stability in mouse liver microsomes assessed as intrinsic clearance; type: ADME, Microsome; settings: read-out: CLH
[15] = AUC (0 to t) in ICR mouse at 30 mg/kg, po measured upto 24 hrs by LC-MS/MS analysis; type: ADME, organism-based; design: time < 24 hrs, dose 30 mg/kg, route po; settings: in vivo
DOHH-2 = assay: Antiproliferative activity against human DOHH-2 cells assessed as cell growth inhibition incubated for 96 hrs by cell titer glo assay; type: functional, cell-based; settings: DOHH-2, 96 h
[16] = Microsomal stability in mouse liver microsomes assessed as half life; type: ADME, Microsome
Pfeiffer [17] = assay: Induction of cell cycle arrest in human Pfeiffer cells assessed as accumulation at G0/G1 phase at 2 to 50 uM after 24 hrs by propidium iodide and RNAase staining based flow cytometric analysis; type: functional; settings: dose 2-50 µM
Pfeiffer [18] = assay: Antitumour activity against human Pfeiffer cells xenografted in nude mouse assessed as reduction in Ki67 expression in tumor at 5 mg/kg, ip BID for 21 days by immunohistochemical analysis; type: functional, organism-based; settings: time 21.0 day
[19] = target: Phosphatidylinositol 4,5-bisphosphate 3-kinase catalytic subunit gamma isoform (Homo sapiens, UniProt P48736); assay: Inhibition of PI3Kgamma (unknown origin) using PIP2 as substrate measured after 1 hr in presence of ATP by ADP-glo luminescence assay
Pfeiffer [20] = assay: Antitumour activity against human Pfeiffer cells xenografted in nude mouse assessed as reduction in Ki67 expression in tumor at 75 mg/kg, po BID for 21 days by immunohistochemical analysis; type: functional, organism-based; settings: time 21.0 day
[21] = Half life in ICR mouse at 3 mg/kg, iv measured upto 24 hrs by LC-MS/MS analysis; type: ADME, organism-based; settings: in vivo
[22] = Cmax in ICR mouse at 3 mg/kg, iv measured upto 24 hrs by LC-MS/MS analysis; type: ADME, organism-based; design: time < 24 hrs, dose 3 mg/kg, route iv; settings: in vivo
Z-138 = assay: Antiproliferative activity against human Z138 cells assessed as cell growth inhibition incubated for 96 hrs by cell titer glo assay; type: functional, cell-based; settings: Z-138, 96 h
[23] = target: T1, Phosphatidylinositol 4,5-bisphosphate 3-kinase catalytic subunit delta isoform; assay: Inhibition of PI3Kdelta in IgM stimulated human Raji cells incubated for 10 mins by AlphaLISA assay; type: cell-based

T2 sequence (P42338 whole entry, canonical isoform): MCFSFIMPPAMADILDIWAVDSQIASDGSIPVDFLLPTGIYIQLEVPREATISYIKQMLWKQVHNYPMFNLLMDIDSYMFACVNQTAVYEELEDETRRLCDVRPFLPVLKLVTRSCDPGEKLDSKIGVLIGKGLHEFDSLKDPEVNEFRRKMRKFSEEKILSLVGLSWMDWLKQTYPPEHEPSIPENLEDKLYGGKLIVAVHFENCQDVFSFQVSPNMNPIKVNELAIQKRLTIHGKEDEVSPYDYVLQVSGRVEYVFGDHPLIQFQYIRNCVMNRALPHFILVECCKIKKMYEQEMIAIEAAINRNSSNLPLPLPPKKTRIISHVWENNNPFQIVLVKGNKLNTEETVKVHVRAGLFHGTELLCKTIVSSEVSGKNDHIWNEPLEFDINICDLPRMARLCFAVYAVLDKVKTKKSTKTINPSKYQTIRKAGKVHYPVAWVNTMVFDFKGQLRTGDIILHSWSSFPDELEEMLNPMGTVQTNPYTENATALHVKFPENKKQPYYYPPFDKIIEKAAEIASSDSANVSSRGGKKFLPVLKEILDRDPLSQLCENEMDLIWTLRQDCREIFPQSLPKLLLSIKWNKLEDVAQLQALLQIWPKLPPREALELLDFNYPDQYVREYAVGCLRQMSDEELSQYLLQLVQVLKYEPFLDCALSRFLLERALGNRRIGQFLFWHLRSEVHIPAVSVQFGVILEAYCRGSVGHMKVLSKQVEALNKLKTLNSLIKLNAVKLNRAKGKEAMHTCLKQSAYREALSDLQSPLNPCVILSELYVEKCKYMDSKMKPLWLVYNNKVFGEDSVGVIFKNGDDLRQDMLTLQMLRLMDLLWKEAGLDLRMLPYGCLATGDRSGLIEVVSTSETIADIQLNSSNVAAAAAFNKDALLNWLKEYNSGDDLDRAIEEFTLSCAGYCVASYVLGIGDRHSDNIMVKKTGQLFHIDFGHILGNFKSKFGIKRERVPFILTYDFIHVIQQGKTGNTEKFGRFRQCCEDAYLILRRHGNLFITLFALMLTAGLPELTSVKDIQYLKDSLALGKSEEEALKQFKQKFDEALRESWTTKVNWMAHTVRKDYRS
Sequence of Phosphatidylinositol 4,5-bisphosphate 3-kinase catalytic subunit alpha isoform (Mus musculus, UniProt P42337) (P42337 whole entry, canonical isoform): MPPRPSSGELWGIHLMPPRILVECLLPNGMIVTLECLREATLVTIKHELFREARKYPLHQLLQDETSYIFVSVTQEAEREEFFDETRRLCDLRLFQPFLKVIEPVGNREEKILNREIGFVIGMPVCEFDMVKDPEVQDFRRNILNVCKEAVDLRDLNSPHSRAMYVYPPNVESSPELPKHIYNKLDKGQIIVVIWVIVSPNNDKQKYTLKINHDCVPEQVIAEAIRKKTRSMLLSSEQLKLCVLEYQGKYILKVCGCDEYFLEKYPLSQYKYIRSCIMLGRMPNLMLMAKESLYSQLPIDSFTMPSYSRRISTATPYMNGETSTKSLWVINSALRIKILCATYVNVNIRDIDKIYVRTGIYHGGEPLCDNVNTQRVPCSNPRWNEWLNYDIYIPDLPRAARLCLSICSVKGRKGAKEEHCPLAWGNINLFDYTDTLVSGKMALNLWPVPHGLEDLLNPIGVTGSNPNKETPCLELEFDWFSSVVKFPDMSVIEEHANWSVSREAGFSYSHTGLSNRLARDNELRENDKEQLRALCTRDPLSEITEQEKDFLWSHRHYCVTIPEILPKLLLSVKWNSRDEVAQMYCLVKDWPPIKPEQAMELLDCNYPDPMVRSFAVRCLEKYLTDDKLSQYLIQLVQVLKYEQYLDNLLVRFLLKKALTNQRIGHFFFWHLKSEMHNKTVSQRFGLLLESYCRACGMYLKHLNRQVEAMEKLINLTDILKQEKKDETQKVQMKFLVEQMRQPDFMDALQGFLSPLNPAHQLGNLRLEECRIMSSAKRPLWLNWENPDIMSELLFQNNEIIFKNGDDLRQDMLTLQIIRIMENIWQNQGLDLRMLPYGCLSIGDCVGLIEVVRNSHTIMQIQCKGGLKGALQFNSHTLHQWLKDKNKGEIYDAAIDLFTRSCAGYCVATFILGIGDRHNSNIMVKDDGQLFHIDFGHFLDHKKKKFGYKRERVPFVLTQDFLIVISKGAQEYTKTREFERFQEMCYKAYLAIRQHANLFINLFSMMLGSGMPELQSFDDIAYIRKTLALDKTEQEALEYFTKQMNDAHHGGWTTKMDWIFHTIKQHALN
Sequence of Phosphatidylinositol 4,5-bisphosphate 3-kinase catalytic subunit alpha isoform (Homo sapiens, UniProt P42336) (P42336 whole entry, canonical isoform): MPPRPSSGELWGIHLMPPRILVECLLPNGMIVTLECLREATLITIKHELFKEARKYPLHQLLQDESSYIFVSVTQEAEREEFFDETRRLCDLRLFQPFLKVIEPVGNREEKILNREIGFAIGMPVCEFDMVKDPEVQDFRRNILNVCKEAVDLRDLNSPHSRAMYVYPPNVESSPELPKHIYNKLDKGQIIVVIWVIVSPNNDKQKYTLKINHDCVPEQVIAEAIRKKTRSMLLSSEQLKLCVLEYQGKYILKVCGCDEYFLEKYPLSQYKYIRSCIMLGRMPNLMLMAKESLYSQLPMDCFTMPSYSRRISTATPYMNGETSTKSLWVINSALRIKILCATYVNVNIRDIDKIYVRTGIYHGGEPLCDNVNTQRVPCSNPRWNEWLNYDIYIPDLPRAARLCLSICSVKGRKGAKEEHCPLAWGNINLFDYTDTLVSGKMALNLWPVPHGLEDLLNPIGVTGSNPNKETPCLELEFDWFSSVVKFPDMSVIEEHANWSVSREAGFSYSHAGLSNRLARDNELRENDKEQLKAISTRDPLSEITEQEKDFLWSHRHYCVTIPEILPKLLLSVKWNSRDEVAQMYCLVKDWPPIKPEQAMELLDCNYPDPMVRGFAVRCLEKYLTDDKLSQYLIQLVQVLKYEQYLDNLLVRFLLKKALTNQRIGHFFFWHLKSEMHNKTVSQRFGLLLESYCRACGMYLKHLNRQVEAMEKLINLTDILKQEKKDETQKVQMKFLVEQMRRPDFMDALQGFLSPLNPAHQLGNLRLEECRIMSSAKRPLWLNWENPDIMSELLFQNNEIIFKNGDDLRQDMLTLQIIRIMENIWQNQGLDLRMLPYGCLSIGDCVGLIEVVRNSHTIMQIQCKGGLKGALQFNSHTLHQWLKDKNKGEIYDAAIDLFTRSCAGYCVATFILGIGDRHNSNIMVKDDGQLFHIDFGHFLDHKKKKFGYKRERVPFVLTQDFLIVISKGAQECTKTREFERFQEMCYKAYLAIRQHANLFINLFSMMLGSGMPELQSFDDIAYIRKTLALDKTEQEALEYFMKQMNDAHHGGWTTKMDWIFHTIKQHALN
Sequence of Phosphatidylinositol 4,5-bisphosphate 3-kinase catalytic subunit gamma isoform (P48736 whole entry, canonical isoform): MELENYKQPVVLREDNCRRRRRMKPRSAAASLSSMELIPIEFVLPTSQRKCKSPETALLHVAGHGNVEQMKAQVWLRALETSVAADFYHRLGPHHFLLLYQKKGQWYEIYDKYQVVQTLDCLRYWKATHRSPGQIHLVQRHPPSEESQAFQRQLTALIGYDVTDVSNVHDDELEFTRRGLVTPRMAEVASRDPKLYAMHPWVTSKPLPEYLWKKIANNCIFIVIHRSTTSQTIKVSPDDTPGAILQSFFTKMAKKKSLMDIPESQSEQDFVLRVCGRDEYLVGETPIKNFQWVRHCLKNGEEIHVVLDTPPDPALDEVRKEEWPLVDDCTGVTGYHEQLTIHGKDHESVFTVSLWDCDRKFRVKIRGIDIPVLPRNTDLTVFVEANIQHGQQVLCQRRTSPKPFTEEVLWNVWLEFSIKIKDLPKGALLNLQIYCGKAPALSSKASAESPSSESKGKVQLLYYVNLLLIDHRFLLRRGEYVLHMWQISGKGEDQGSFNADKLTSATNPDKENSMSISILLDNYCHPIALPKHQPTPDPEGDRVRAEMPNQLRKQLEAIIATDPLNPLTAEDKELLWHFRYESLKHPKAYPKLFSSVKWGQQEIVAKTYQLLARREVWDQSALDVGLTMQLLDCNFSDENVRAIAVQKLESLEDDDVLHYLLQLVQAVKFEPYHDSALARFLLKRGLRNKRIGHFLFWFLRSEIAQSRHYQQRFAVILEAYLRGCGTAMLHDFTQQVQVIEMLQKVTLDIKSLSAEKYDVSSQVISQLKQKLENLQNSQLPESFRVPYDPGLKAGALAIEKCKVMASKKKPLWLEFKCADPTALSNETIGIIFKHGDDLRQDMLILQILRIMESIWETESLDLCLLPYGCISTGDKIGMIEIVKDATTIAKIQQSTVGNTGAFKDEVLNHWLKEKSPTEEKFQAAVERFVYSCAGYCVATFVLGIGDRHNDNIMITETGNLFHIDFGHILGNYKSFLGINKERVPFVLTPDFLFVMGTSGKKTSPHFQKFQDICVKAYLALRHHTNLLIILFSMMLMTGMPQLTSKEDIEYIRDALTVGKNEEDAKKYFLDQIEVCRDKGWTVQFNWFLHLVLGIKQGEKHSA

- IC50 [1]: 50200 nM
- IC50 [2]: 5.7 nM
- Cmax [3]: 372 ng/mL
- IC50 [6]: 972 nM
- IC50 [8]: 5120 nM
- IC50 [9]: 310 nM
- CLint scaled [14]: 60.3 mL/min/kg
- AUC(0-t) at 24 h [15]: 1030 ng·h/mL
- half-life [16]: 1.51 h
- IC50 [19]: 2680 nM
- half-life [21]: 1.73 h
- Cmax [22]: 3190 ng/mL
- IC50 [23]: 137 nM
SMILES: CCC(=O)N1CC[C@H](Nc2ncnc3sc(-c4cnc(OC)c(OC)c4)cc23)C1
- IC50 (Pfeiffer [4]): 580 nM
- Activity (Pfeiffer [5]): 6.98%
- Activity (SU-DHL-6 [7]): Active
- Activity (SU-DHL-6 [10]): Dde
- IC50 (Rec1): 1210 nM
- inhibition (SU-DHL-6 [11]): Dde
- Activity (Pfeiffer [12]): 12.63%
- inhibition (Pfeiffer [13]): Dde
- IC50 (DOHH-2): 10600 nM
- Activity (Pfeiffer [17]): Active
- Activity (Pfeiffer [18]): Active
- Activity (Pfeiffer [20]): Active
- IC50 (Z-138): 7050 nM
